Where no end group is shown, it is not given here. [ ]: non-standard residue; d: D form.
Columns and labels:
[1] = molecular target: T1, cytochrome c and cardiolipin (CL) (Equus caballus, UniProt P00004); assay: Fluorescence quenching by cytochrome c in the presence of cardiolipin; assay type: binding, horse; conditions: CL 50 μg/ml
T1 construct: from tissue; host or cells: horse heart
Protocol: Fluorescence emission of SS-19 (10 μM) was monitored in real time (Ex/Em=320 nm/420 nm) using Hitachi F-4500 fluorescence spectrophotometer. […] CL may potentiate the interaction between SS-19 and cytochrome c by serving as an anionic platform for the two cationic molecules.
The quenching by cytochrome c was not displaced by sequential additions of bovine serum albumin (500 μg/ml) (FIG. 13C, A+arrows).
SS-36 also contains the polarity-sensitive fluorescent amino acid aladan. […] Accordingly, aromatic-cationic peptides of the present disclosure are useful for the prevention or treatment of diseases or disorders characterized by dysregulation of cardiolipin and/or cytochrome c, and/or diseases or disorders characterized by dysregulation of the cardiolipin/cytochrome c interaction.
Interaction of SS peptides with horse heart cytochrome c in the absence or presence of free cardiolipin or cardiolipin/POPC (1:1) liposomes (prepared as described in Example 22) was examined by fluorescence quenching of [atn]SS-02 (λex/λem=320/420 nm) and [ald]SS-02 (λex/λem=360/510 nm) upon addition of cytochrome c (using a Hitachi F-4500 fluorescence spectrophotometer). The solvents used to dissolve cardiolipin and POPC had negligible effect on cytochrome c-dependent quenching of these peptides. All experiments were done in low ionic solution (deionized water) or 20 mM Hepes pH 7.4.

[2] = Fluorescence spectroscopy of labelled peptides with cardiolipin; assay type: binding; conditions: 1 μM peptide; CL 5 to 50 μg/ml
Description: The peptides 2′,6′-Dmt-D-Arg-[…] (SS-19) and 2′,6′-Dmt-D-Arg-Phe-Lys-Ald-NH2 (SS-37) cationic peptides carry net positive charge at neutral pH. They are expected to associate with anionic phospholipid cardiolipin based on electrostatic interaction. The interaction of small peptides with lipid membranes can been studied using fluorescence spectroscopy (Surewicz and Epand, 1984). […] Polarity-sensitive fluorescent probes were incorporated into the peptides and fluorescence spectroscopy was used to determine if SS-19, SS-37 and SS-36 interact with CL.
The peptide 2′,6′-Dmt-D-Arg-Phe-(atn)Dap-NH2 (SS-19) contains anthraniloyl incorporated into diaminopropionic acid. Anthraniloyl derivatives fluoresce in the 410-420 nm range when excited at 320-330 nm (Hiratsuka T, 1983). The quantum yield of anthraniloyl derivatives is strongly dependent on the local environment, and can increase 5-fold going from water to 80% ethanol, together with a blue shift in the emission maxima (λ max) of <10 nm (Hiratsuka T, 1983). Fluorescence emission spectrum of SS-19 (1 μM) alone, and in the presence of increasing concentrations of CL (5 to 50 μg/ml), was monitored following excitation at 320 nm using Hitachi F-4500 fluorescence spectrophotometer.
The peptide 2′,6′-Dmt-D-Arg-Phe-Lys-Ald-NH2 (SS-37) contains an additional amino acid, aladan (Ald), which has been reported to be particularly sensitive to the polarity of its environment and it has been used to probe the electrostatic character of proteins (Cohen et al., 2002). When excited at 350 nm, λmax shifts from 542 nm in water to 409 nm in heptane, accompanied by a significant increase in quantal yield (Cohen et al., 2001). Fluorescence emission spectrum of SS-37 (1 μM) alone, and in the presence of increasing concentrations of CL, was monitored following excitation at 350 nm. Addition of CL (5 to 50 μg/ml) led to a 3-fold increase in quantal yield of SS-37 as well as a clear blue shift in λ max, from 525 nm without CL to 500 nm with 50 μg/ml CL (FIG. 11B).
The peptide 2′,6′-Dmt-D-Arg-Ald-Lys-NH2 (SS-36) contains Ald in place Phe^3 in SS-02. Fluorescence emission spectrum of SS-36 (1 μM) alone, and in the presence of increasing concentrations of CL, was monitored following excitation at 350 nm. SS-36 was the most sensitive to the addition of CL, with dramatic increase in quantal yield and blue shift observed with much lower added amounts of CL (1.25 to 5 μg/ml). The λmax shifted from 525 nm without CL to 500 nm with as little as 1.25 μg/ml CL, and quantal yield increased by more than 100-fold with the addition of 5 μg/ml of CL (FIG. 11C). […] Accordingly, aromatic-cationic peptides of the present disclosure are useful for the prevention or treatment of diseases or disorders characterized by dysregulation of cardiolipin.
Changes in the emission intensity of the [atn]SS-02 and the [ald]SS-02 were measured using a Hitachi F-4500 fluorescence spectrophotometer. The different solvents used to dissolve the various phospholipids (chloroform, methanol and ethanol) had negligible effect on the fluorescence spectrum of [atn]SS-02 and [ald]SS-02. All experiments were done in low ionic solution (deionized water) to optimize electrostatic interactions of peptides with phospholipids.
Increasing concentrations of cardiolipin (5, 10, 25, and 50 μg/mL) were added to 1 μM [atn]SS-02, and the emission intensity between 350 nm and 500 nm was measured.

[3] = molecular target: cytochrome c/cardiolipin complex (Equus caballus, UniProt P00004); assay: Soret circular dichroism of cytochrome c with cardiolipin; assay type: biochemical; conditions: 10 μM cytochrome c, 30 μg/ml CL, 10 μM peptide; 20 mM HEPES pH 7.5, 25° C.
Protocol: Circular dichroism (CD) was carried out to examine the effects of the peptides on protecting the heme environment of cytochrome c from the acyl chain of CL. For heme proteins, the Soret CD spectrum is strictly correlated with the heme pocket conformation. In particular, the negative 416-420 nm Cotton effect is considered diagnostic of Fe(III)-Met80 coordination in native cytochrome c (Santucci and Ascoli, 1997). […] CD spectra were obtained using AVIV CD Spectrometer Model 410.
Changes in the Soret CD spectrum of cytochrome c (10 μM) were recorded in the absence (dotted line) and presence (dashed line) of 30 μg/ml CL, plus addition of different peptides (10 μM) (solid line) (FIG. 14). CD measurements were carried out using 20 mM HEPES, pH 7.5, at 25° C. and expressed as molar ellipticity (A) (m Deg). […] Accordingly, aromatic-cationic peptides of the present disclosure are useful for the prevention or treatment of diseases or disorders characterized by dysregulation of cardiolipin and/or cytochrome c, and/or diseases or disorders characterized by dysregulation of the cardiolipin/cytochrome c interaction. In addition, aromatic-cationic peptides of the present disclosure are useful to protect the heme environment of cytochrome c from the acyl chain of cardiolipin.
Circular Dichroism (CD) spectra were collected with an AVIA 62 DS spectrophotometer equipped with a sample temperature controller. CD spectra of the Soret region (370-450 nm) were recorded with 10-mm path length cells containing 20 mM Hepes, pH 7.4, and 10 μM cytochrome c, in the presence or absence of 30 μg/ml cardiolipin and different SS peptide analogs (SS-02, [atn]SS-02, [ald]SS-02, and SS-31). The maximum lipid concentration was kept low to avoid spectral distortions due to excessive light scattering. All measurements were done at 25° C. All spectra were corrected for background, and the final spectrum shown represents the average of at least three experiments.

[4] = molecular target: cardiolipin-cytochrome c complex (Equus caballus, UniProt P00004); assay: Cytochrome c reduction in the presence of cardiolipin; assay type: biochemical; conditions: 500 μM GSH
Protocol: Reduction of cytochrome c (20 μM) was induced by the addition of glutathione (500 μM) in the absence or presence of CL (100 μg/ml) (FIG. 15A). Reduction of cytochrome c was monitored by absorbance at 550 nm using a 96-well UV-VIS plate reader (Molecular Devices). Addition of CL decreased the rate of cytochrome c reduction by half.
The time course of cytochrome c reduction by ascorbate was recorded at 550 nm and 570 nm using a 96-well plate reader (Molecular Devices, Sunnyvale, Calif.). For all reactions, cytochrome c was preincubated with cardiolipin in the presence or absence of SS peptides for 1 min. […] Ascorbate (50 μM) was added to initiate the reduction of cytochrome c, and the absorbance was recorded for 5 min. The rate of reduction was calculated based on slope of the change in absorbance intensity of 550 nm over 570 nm.

isolated mitochondria = assay: ATP synthesis in isolated mitochondria; assay type: biochemical, rat; conditions: mitochondria energized with low concentrations of succinate
Protocol: (§1) Fresh mitochondria were isolated from rat kidney as described previously. Electron flux was measured by O2 consumption (Oxygraph Clark electrode) as previously described using different substrates for C1 (glutamate/malate), C2 (succinate), and C3 (TMPD/ascorbate). Assays were carried out under low substrate conditions in order to avoid saturating the enzyme reactions. ATP production in isolated mitochondria was determined kinetically using the luciferase method (Biotherma) in a 96-well luminescence plate reader (Molecular Devices). The initial maximal rate for ATP synthesis was determined over the first minute.
The rate of mitochondrial ATP synthesis was determined by measuring ATP in respiration buffer collected from isolated mitochondria 1 min after addition of […] (FIG. 6). ATP was assayed by HPLC. All experiments were carried out in triplicate, with n=3. […] Accordingly, aromatic-cationic peptides of the present disclosure are useful for increasing ATP synthesis in mitochondria and for treating diseases or disorder characterized by dysregulation of ATP synthesis.
(§2) SS-20 or SS-31 was added at 100 μM concentrations to isolated mitochondria in respiration buffer containing 0.5 mM succinate (complex II substrate) and 400 μM ADP. Similar increases in O2 consumption were observed when low concentrations of complex I substrates (glutamate/malate) were used (data not shown). […] Accordingly, targeting SS-20 and SS-31 to the IMM can facilitate electron flux in the electron transport chain and improve ATP synthesis, especially under conditions of reduced substrate supply.
Increase in electron flux in the electron transport chain can either result in increase in ATP synthesis or increase in electron leak and generation of free radicals. ATP synthesis in isolated mitochondria was assayed by HPLC. […] Accordingly, aromatic-cationic peptides of the present disclosure are useful for increasing ATP synthesis in mitochondria and for treating diseases or disorder characterized by dysregulation of ATP synthesis.

cytochrome c = cytochrome c (Equus caballus, UniProt P00004); assay: Cytochrome c reduction kinetics (absorption spectroscopy); assay type: biochemical; conditions: glutathione (GSH) as reducing agent; absorbance at 550 nm
Protocol: Increasing amounts of aromatic-cationic peptides were added to a solution of oxidized cytochrome c. The formation of reduced cytochrome c was monitored by absorbance at […]. The rate of cytochrome c reduction was determined by non-linear analysis (Prizm software).
Time-resolved UV-Visible absorption spectroscopy was used to study the electron transport process of cytochrome c in the presence of peptides. Reduced cytochrome c was monitored by absorbance at a broad-band spectral range (200-1100 nm). The absorption changes were recorded with a UV/Visible spectrophotometer (Ultrospec 3300 pro, GE) in quartz cells with path lengths of 1 or 2 mm. N-acetylcysteine (NAC) and glutathione were used as electron donors to reduce oxidized cytochrome c. The rate constant of cytochrome c reduction was estimated by adding various concentrations of peptides. The dose dependence of the peptides was correlated to the cytochrome c reduction kinetics.
Absorption spectroscopy (UltroSpec 3300 Pro; 220-1100 nm) was used to determine if SS-31 modulates cytochrome c reduction (FIG. 1). Reduction of cytochrome c with glutathione is associated with multiple shifts in the Q band (450-650 nm), with a prominent shift at 550 nm. […] Accordingly, the aromatic-cationic peptides of the present disclosure are useful for altering the structure and oxidation state of cytochrome c, and are useful for the prevention or treatment of diseases or disorders characterized by dysregulation of cytochrome c.
Reduction of cytochrome c was monitored by increase in absorbance at 550 nm. […] Similar results were obtained using N-acetylcysteine (NAC) as a reducing agent (not shown). […] Accordingly, aromatic-cationic peptides of the present disclosure are useful for the prevention or treatment of diseases or disorders characterized by dysregulation of cytochrome c and are useful for facilitating cytochrome c reduction.

[5] = test system: isolated rat kidney mitochondria; assay: O2 consumption in isolated mitochondria; assay type: biochemical; conditions: 400 μM ADP
Protocol: as §1
Oxygen consumption of isolated rat kidney mitochondria was determined using the Oxygraph (FIG. 5). Rates of respiration were measured in the presence of different concentrations of SS-31 in state 2 (400 μM ADP only), state 3 (400 μM ADP and 500 μM substrates) and state 4 (substrates only). All experiments were done in triplicate with n=4−7. […] Accordingly, aromatic-cationic peptides of the present disclosure are useful for promoting electron transfer to oxygen without uncoupling mitochondria, increasing O2 consumption, and treating diseases or conditions related to dysregulation of O2 consumption in mitochondria.
as §2
SS-20 or SS-31 was added at 10 μM or 100 μM concentrations to isolated mitochondria in respiration buffer containing glutamate/malate (complex I substrate), 0.5 mM succinate (complex II substrate) or 3 μM TMPD/1 mM ascorbate (direct reductant of cytochrome c). 400 μM ADP was added to initiate State 3 respiration.

cardiolipin-cytochrome c complex, sequence (P00004 2-105 limits assumed, one chain of several): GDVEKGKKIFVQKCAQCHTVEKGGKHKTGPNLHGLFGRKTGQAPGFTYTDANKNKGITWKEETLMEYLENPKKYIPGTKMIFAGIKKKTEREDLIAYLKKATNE
cytochrome c/cardiolipin complex, sequence (P00004 2-105 limits assumed, one chain of several): as above
T1 sequence (P00004 2-105 limits assumed): as the sequence (P00004 2-105 limits assumed, one chain of several) above
cytochrome c, sequence (P00004 2-105 limits assumed): as the sequence (P00004 2-105 limits assumed, one chain of several) above

Substance: 2′,6′-Dmt-D-Arg-Phe-Lys-Ald-NH2 [SS-37]
- quenching of fluorescence by cytochrome c in the presence of CL ([1]; 10 μM peptide, 2 μM cytochrome c): similarly quenched
- displacement of quenching by bovine serum albumin in the presence of CL ([1]; BSA 500 μg/ml): not displaced
- increase in quantal yield on addition of CL [2]: 3 fold

Substance: D-Arg-Tyr-Lys-Phe-NH2 ([dR]YKF-NH2; N-terminus assumed; SMILES N=C(N)NCCC[C@@H](N)C(=O)N[C@@H](Cc1ccc(O)cc1)C(=O)N[C@@H](CCCCN)C(=O)N[C@@H](Cc1ccccc1)C(N)=O) [SPI-231]
- protection against CL-induced disappearance of negative Cotton effect [3]: Protect the Heme Environment of Cytochrome c from the Acyl Chain of CL
- CL inhibition of cytochrome c reduction [4]: prevented CL inhibition of cytochrome c reduction

Substance: F[dR]FK-NH2 [SS-20]
- rate of ATP production (isolated mitochondria): significant increase in the rate of ATP production
- protection against CL-induced disappearance of negative Cotton effect [3]: Protect the Heme Environment of Cytochrome c from the Acyl Chain of CL
- CL inhibition of cytochrome c reduction [4]: prevented CL inhibition of cytochrome c reduction
- rate (kinetics) of cytochrome c reduction (cytochrome c): accelerate the kinetics of cytochrome c reduction
- O2 consumption in state 3 respiration ([5]; 10 μM or 100 μM peptide, complex I or complex II substrates or TMPD/ascorbate): increases O2 consumption in state 3 respiration
- electron flux measured by O2 consumption ([5]; 100 μM peptide, 0.5 mM succinate): promote electron flux
